# Entries after “also recorded” stand apart in the source; their conditions may differ.
# What was measured:
# [1] = system: B and NK cells; test: Interaction propensity of B and NK cells in combined bone marrow and PBMCs of B-ALL patients; assay type: cell-based, human; conditions: B-ALL bone marrow plus PBMCs, vs PBS control
# Text: Bone marrow of a patients with B-cell acute lymphoblastic leukemia (B-ALL) and PBMCs of the same patient are combined, treated with Rituximab or PBS control and the interaction propensity of B and NK cells in non-adherent cell monolayers obtained from treated and untreated combined sample according to WO 2016/046346 determined using the present invention.
# [2] = system: CD11C and CD3 cells; test: Interaction propensity of CD11C and CD3 cells in PBMC monolayers of a healthy donor; assay type: cell-based, human; conditions: PBMCs of a healthy donor, various concentrations, vs DMSO control
# Method: FIG. 10: Measured interaction propensity expressed as Log 2 interaction score of CD11c and CD3 cells after treatment with the small molecule Crizotinib.
# PBMCs of a healthy donor are treated with Crizotinib or DMSO control at various concentrations and the interaction propensity of CD11C and CD3 cells in non adherent cell monolayers obtained from treated and untreated combined sample according to WO 2016/046346 determined using the present invention.
# [3] = system: B (CD19 positive) and T cells (CD3 positive); test: Interaction propensity of B (CD19 positive) and T cells (CD3 positive) in PBMC monolayers; assay type: cell-based, human; conditions: PBMC monolayers (healthy blood), 48 h, over PBS control (0)
# Text: FIG. 9: Measured interaction propensity expressed as Log 2 interaction score of CD3 cells to […] with increasing concentrations of the clinically approved biologic drug Blinatumomab, with media alone as a control (0). Blinatumomab has a known mechanism of action bringing together cytotoxic or other T-cells and cancerous B-cells, through this interaction, Inducing cancer cell killing and thus reducing the cancerous burden.
# PBMC monolayers were provided as described in WO 2016/046346, treated with blinatumomab or PBS control (0) for 48 h, fixed, stained with fluorescently labeled CD3 and CD19 antibodies and imaged using automated confocal microscopy. Subsequently, the interaction propensity of B (CD19 positive) and T cells (CD3 positive) in the provided non-adherent cell monolayers was determined using the present invention.
# [4] = system: B (CD19 positive) and NK cells (CD58 positive); test: Interaction propensity of B (CD19 positive) and NK cells in PBMC monolayers; assay type: cell-based, human; conditions: 48 h, over PBS control (0)
# Text: FIG. 11: Measured interaction propensity expressed as Log 2 interaction score of CD19 cells to CD56 cells with increasing concentrations of the clinically approved biologic drug Rituxidmab, with media alone as a control (0). Rituximab has a known mechanism of action bringing together NK-cells and cancerous B-cells, and through this interaction inducing cancer, reducing the cancerous burden.
# PBMC monolayers were provided as described in WO 2016/046346, treated with rituximab or PBS control (0) for 48 h, fixed, stained with fluorescently labeled CD56 and CD19 antibodies and imaged using automated confocal microscopy. Subsequently, the interaction propensity of B (CD19 positive) and NK cells ([…]) in the provided non-adherent cell monolayers was determined using the present invention.
# [5] = system: B and T cells; test: Interaction propensity of B and T cells in combined bone marrow and PBMCs of B-ALL patients; assay type: cell-based, human; conditions: B-ALL bone marrow plus PBMCs, vs PBS control
# Text: Bone marrow of a patients with B-cell acute lymphoblastic leukemia (B-ALL) and PBMCs of the same patient are combined, treated with blinatumomab or PBS control and the interaction propensity of B and T cells in non-adherent cell monolayers obtained from treated and untreated combined sample according to WO 2016/046346 determined using the present invention.
# [6] = system: CD10+ positive target cells and CD3+ T-cells; test: Interaction of CD10 positive tumour cells with T-cells in pleural effusion/PBMC monolayers of a B-cell lymphoma patient; assay type: cell-based, human
# Method: FIG. 12: interactions between CD10+ positive target cells, which according to pathology review comprised the tumour cells, and CD3+ T-cells were measured in a sample of a B-cell lymphoma patient in response to blinatumomab treatment for 24 h using the methods of the present invention and quantified as an interaction score. […] The different graphs show different amounts of cells isolated from pleural effusion (PE) of the patient mixed with different amounts of matched PBMCs from the same patient.
# Pleural effusion from a patient with a B-cell lymphoma was collected by gradient density centrifugation. This pleural effusion consisted of a mixture of cell types found in bone marrow and PBMCs having migrated to the pleural cavity with concomitant fluid build-up and contained cancer as well as healthy cells. A matched sample of blood was also purified over Lymphoprep gradient. Cells obtained from the pleural effusion were titrated against cells from the matched PBMC samples and monolayers prepared according to WO2016/046346. Monolayers were treated with different concentrations of blinatumomab and the interaction of tumour cell populations previously determined to be CD10 positive by a pathologist with effector T-cells determined using the methods described in the present invention.
# [7] = system: B-cell lymphoma; test: Clinical response of the B-cell lymphoma patient to treatment; assay type: in vivo, human; conditions: one B-cell lymphoma patient given the drug
# [8] = patients not responding clinically
# [9] = patients responding to the drug
molecule,measurement,setting,value
"Rituximab: anti-CD20 antibody that links B and NK cells, inducing NK cells to kill B cells",interaction propensity between B and NK cells,[1]; [8],do not exhibit this increase
same,interaction propensity between B and NK cells,[1]; [9],increase
C[C@@H](Oc1cc(-c2cnn(C3CCNCC3)c2)cnc1N)c1c(Cl)ccc(F)c1Cl [Crizotinib],interaction of DCs and T-cells as indicated by the interaction score,[2],increase
blinatumomab: bispecific antibody in BITE format that cross links B and T cells inducing T cells to kill B cells,interaction propensity between B and T cells,[3],increases
same,interaction propensity between B and T cells,[3]; listed as blinatomumab,increase
same,interaction propensity between B and NK cells,[4],increase
same,interaction propensity between B and T cells,[5]; [8],do not exhibit this increase
same,interaction propensity between B and T cells,[5]; [9],increase
same,fraction of tumour B-cells,"[6]; B-cell lymphoma patient sample, ex vivo treatment",did not change significantly
same,interaction of CD10 positive tumour cells with effector T-cells (interaction score),"[6]; B-cell lymphoma patient, pleural effusion cells mixed with matched PBMCs, different concentrations, 24 h",this was not the case for this patient; also recorded: no such interaction change was observed
same,clinical response of the patient,[7],not to respond; also recorded: transient and weak response

# From patent publication US20200064348A1, “METHODS FOR DETERMINING INTERACTION BETWEEN BIOLOGICAL CELLS” (CeMM - Forschungszentrum für Molekulare Medizin GmbH, priority 2017, published 2020)
